Consider 17 compounds from patent US11407711B2, “Benzamide compound and use thereof” (METISA BIOTECHNOLOGY CO., LTD., priority 2018, dated 2022).

What all share (format): in vivo
The subject of one assay is Plutella xylostella. Description: Insecticidal activity against Plutella xylostella (Airbrush spray on cabbage leaf discs). Particulars: for pest or weed control at 10 µg/mL / pest or weed control at 1 µg/mL / pest or weed control at 0.5 µg/mL: Plutella xylostella, foliar, 72 h; for Fatality rate (%, 3 d after administration) 5 mg/L: Table 72, 5 mg/L; for Fatality rate (%, 3 d after administration) 0.05 mg/L: Table 74, 0.05 mg/L. Here is the method:
(§1) The compound to be tested was dissolved by a mixed solvent of acetone/methanol (1:1), and then diluted by water containing 0.1% (wt) Tween 80 to the required concentration.
(§2) An Airbrush spray method was adopted for the determination of the activity, with armyworm, Plutella xylostella and Chilo suppressalis as targets.
Determination method: cabbage blades were punched into 2 cm (diameter) leaf discs by a puncher; with the pressure of Airbrush spray being 10 psi (about 0.7 kg/cm^2), both sides of each leaf disc were sprayed with the amount of 0.5 ml. After dried in the shade, each leaf disc was inoculated with 10 3rd-instar larvaes, 3 repeats for each leaf disc. And then, the treated leaf discs were put into an observation room (25° C., relative humidity: 60-70%) for cultivation; the number of the survivals was surveyed 1 d, 2 d and 3 d after administration, and then the death rate was calculated.

The subject of a further assay is Chilo suppressalis. Description: Insecticidal activity against Chilo suppressalis (spray on rice seedlings, stems fed to larvae). Here is the method: as §1, §2
Determination method: 1) preparation of rice seedlings: rice was cultivated in small plastic cups (diameter: 4.5 cm and height: 4 cm) at a constant temperature room (temperature: 26-28° C., relative humidity: 60-80% around and illumination: 16 hL:8 hD), after the rice grew to a 4-5 leaf stage, vigorous and uniform-growth rice seedlings were selected and treated with an insecticide, 3 repeats for each treatment. 2) Preparation of pests for test: 3rd-instar larvaes of Chilo suppressalis fed continuously in the room. 3) Inoculation of pests on rice stems by spray. The whole plants of the rice seedlings were sprayed by a spray method uniformly, with the dose of 15 ml for each treatment. The blank control was treated first, and the above operation was repeated in an order of lower to higher test concentration. After sprayed, rice seedlings were placed in the shade to dry the insecticide liquor, and then stalks about 5 cm above the basal part of the stems were cut to be fed to the pests for test. Glass petri dishes (diameter: […]) were prepared, cushioned by filter paper at the bottom thereof, and subjected to water addition for moisturizing; about 20 pieces of rice stems were put in each dish and inoculated with 10 larvaes; then the petri dishes were closed by non-woven fabrics and placed in a constant temperature room for culture. The number of survivals was surveyed 3 d after administration.

Another assay has as its system armyworm. In words: Insecticidal activity against armyworm (Airbrush spray on maize blade segments). Conditions: 72 h, 3 d after administration, 3rd-instar larvae, read-out: fatality rate against armyworm. Here is the method: as §1, §2
Determination method: maize blades were cut into 2 cm (length) segments; with the pressure of Airbrush spray being 10 psi (about 0.7 kg/cm^2), both sides of each blade segment were sprayed with the amount of 0.5 ml. After dried in the shade, each segment was inoculated with 10 3rd-instar larvaes, 3 repeats for each segment. And then, the treated segments were put into an observation room (25° C., relative humidity: 60-70%) for cultivation; the number of the survivals was surveyed 1 d, 2 d and 3 d after administration, and then the death rate was calculated.

Setting [1] is: Table 71, 10 mg/L, 3 d after administration, read-out: Fatality rate (%, 3 d after administration) 10 mg/L.
The mark [2] stands for this setting: Table 73, 0.5 mg/L, 3 d after administration.
Where [3] appears, read: Table 72, 1 mg/L, 3 d after administration.
[4] abbreviates: Table 73, 1 mg/L, 3 d after administration.
Where [5] appears, read: Table 74, 0.5 mg/L, 3 d after administration.
Setting [6] is: Table 73, 0.5 mg/L, 3 d after administration, read-out: Fatality rate (%, 3 d after administration) 0.5 mg/L.
[7] abbreviates: Table 73, 1 mg/L, 3 d after administration, read-out: Fatality rate (%, 3 d after administration) 1 mg/L.
Where [8] appears, read: Table 75, fast-acting efficacy, dose 0.5 mg/L.
Setting [9] is: Table 76, fast-acting efficacy, dose 0.05 mg/L.

Where two headings read alike, the source gives them in different places. Bounds are passed on as bounds.

With `COCN(C(=O)c1ccccc1)c1cccc(C(=O)N(C)c2c(C)cc(C(F)(C(F)(F)F)C(F)(F)F)cc2C)c1` [CK1, reference compound], the pest or weed control at 10 µg/mL with Plutella xylostella (setting [1]) turned out to be 0%.
Still for that read-out and setting: the figure for `COCN(C(=O)c1ccccc1)c1cccc(C(=O)Nc2c(C)cc(C(F)(C(F)(F)F)C(F)(F)F)cc2C)c1` [CK2, reference compound] is 0%; for `Cc1cc(C(F)(C(F)(F)F)C(F)(F)F)cc(C)c1NC(=O)c1cccc(N(C#N)C(=O)c2ccccc2)c1` [CK3, reference compound] it is 0%.
Turning to `NC(=O)CCN(C(=O)c1ccccc1)c1cccc(C(=O)N(CCC(N)=O)c2c(Br)cc(C(F)(C(F)(F)F)C(F)(F)F)cc2C(F)(F)F)c1F` [CK4, reference compound], in the assay on Plutella xylostella (read-out: Fatality rate (%, 3 d after administration) 10 mg/L, Table 71, 10 mg/L, 3 d after administration), the pest or weed control at 10 µg/mL is 0%.
For the compound `NC(=O)CCN(C(=O)c1ccccc1)c1cccc(C(=O)N(CCC(N)=O)c2c(Br)cc(C(F)(C(F)(F)F)C(F)(F)F)cc2C(F)(F)F)c1F` [CK5, reference compound], the pest or weed control at 1 µg/mL in the assay with Plutella xylostella (read-out: Fatality rate (%, 3 d after administration) 1 mg/L, Table 72, 1 mg/L, 3 d after administration) was found to be 0%. Also, the “Fatality rate (%, 3 d after administration) 5 mg/L” value in the assay with Plutella xylostella (3 d after administration) is listed as 63.5%.
Consider `NC(=O)CCN(C(=O)c1ccccc1)c1cccc(C(=O)N(CCC(N)=O)c2c(Br)cc(C(F)(C(F)(F)F)C(F)(F)F)cc2C(F)(F)F)c1F` [CK6, reference compound], for which the pest or weed control at 1 µg/mL in the assay with Plutella xylostella (read-out: Fatality rate (%, 3 d after administration) 1 mg/L, Table 73, 1 mg/L, 3 d after administration) is 68%. In the assay on Plutella xylostella (setting [2]), the “Fatality rate (%, 3 d after administration) 0.5 mg/L” value came to 10%.
In the case of `NC(=O)CCN(C(=O)c1ccccc1)c1cccc(C(=O)N(CCC(N)=O)c2c(Br)cc(C(F)(C(F)(F)F)C(F)(F)F)cc2C(F)(F)F)c1F` [CK7, reference compound], the pest or weed control at 0.5 µg/mL in the assay on Plutella xylostella (read-out: Fatality rate (%, 3 d after administration) 0.5 mg/L, Table 74, 0.5 mg/L, 3 d after administration) worked out at 70%. Further, the “Fatality rate (%, 3 d after administration) 0.05 mg/L” value in the assay with Plutella xylostella (3 d after administration) came out at 0%.
Take `NC(=O)CCN(C(=O)c1ccccc1)c1cccc(C(=O)N(CCC(N)=O)c2c(Br)cc(C(F)(C(F)(F)F)C(F)(F)F)cc2C(F)(F)F)c1F` [CK8, reference compound]: the “Fatality rate (%, 3 d after administration) 1 mg/L” value with Plutella xylostella (setting [3]) came out at 0%. In addition, the “Fatality rate (%, 3 d after administration) 5 mg/L” value with Plutella xylostella (3 d after administration) is 65.8%.
In the case of `NC(=O)CCN(C(=O)c1ccccc1)c1cccc(C(=O)N(CCC(N)=O)c2c(Br)cc(C(F)(C(F)(F)F)C(F)(F)F)cc2C(F)(F)F)c1F` [CK9, reference compound], the “Fatality rate (%, 3 d after administration) 0.5 mg/L” value with Plutella xylostella (setting [2]) is reported as 0%. In addition, the “Fatality rate (%, 3 d after administration) 1 mg/L” value with Plutella xylostella (setting [4]) is given as 55%.
Turning to `NC(=O)CCN(C(=O)c1ccccc1)c1cccc(C(=O)N(CCC(N)=O)c2c(Br)cc(C(F)(C(F)(F)F)C(F)(F)F)cc2C(F)(F)F)c1F` [CK10, reference compound], in the assay on Plutella xylostella (setting [2]), the “Fatality rate (%, 3 d after administration) 0.5 mg/L” value amounted to 0%. In the assay with Plutella xylostella (setting [4]), the “Fatality rate (%, 3 d after administration) 1 mg/L” value is recorded as 55%.
In the case of `NC(=O)CCN(C(=O)c1ccccc1)c1cccc(C(=O)N(CCC(N)=O)c2c(Br)cc(C(F)(C(F)(F)F)C(F)(F)F)cc2C(F)(F)F)c1F` [CK11, reference compound], the “Fatality rate (%, 3 d after administration) 0.05 mg/L” value in the assay on Plutella xylostella (3 d after administration) was 0%. In the assay on Plutella xylostella (setting [5]), the “Fatality rate (%, 3 d after administration) 0.5 mg/L” value is reported as 75%.
In the case of `NC(=O)CCN(C(=O)c1ccccc1)c1cccc(C(=O)N(CCC(N)=O)c2c(Br)cc(C(F)(C(F)(F)F)C(F)(F)F)cc2C(F)(F)F)c1F` [CK12, reference compound], the “Fatality rate (%, 3 d after administration) 1 mg/L” value in the assay on Plutella xylostella (setting [3]) was 0%. The “Fatality rate (%, 3 d after administration) 5 mg/L” value in the assay on Plutella xylostella (3 d after administration) is 60%.
In the case of `NC(=O)CCN(C(=O)c1ccccc1)c1cccc(C(=O)N(CCC(N)=O)c2c(Br)cc(C(F)(C(F)(F)F)C(F)(F)F)cc2C(F)(F)F)c1F` [CK13, reference compound], in the assay with Plutella xylostella (setting [2]), the “Fatality rate (%, 3 d after administration) 0.5 mg/L” value was 0%. Moreover, the “Fatality rate (%, 3 d after administration) 1 mg/L” value in the assay on Plutella xylostella (setting [4]) came to 75%.
Regarding `NC(=O)CCN(C(=O)c1ccccc1)c1cccc(C(=O)N(CCC(N)=O)c2c(Br)cc(C(F)(C(F)(F)F)C(F)(F)F)cc2C(F)(F)F)c1F` [CK14, reference compound], in the assay on Plutella xylostella (3 d after administration), the “Fatality rate (%, 3 d after administration) 0.05 mg/L” value came to 0%. Besides, in the assay on Plutella xylostella (setting [5]), the “Fatality rate (%, 3 d after administration) 0.5 mg/L” value is 60%.
Take `O=C(Nc1cccc(C(=O)Nc2c(Br)cc(C(F)(C(F)(F)F)C(F)(F)F)cc2Br)c1F)c1ccccc1` [CK15, reference compound]: in the assay on Plutella xylostella (setting [6]), the pest or weed control at 0.5 µg/mL stood at 50%. For the same compound, the pest or weed control at 1 µg/mL in the assay on Plutella xylostella (setting [7]) was 90%. In the assay with Plutella xylostella (setting [8]), the “Fatality rate (%) 1 d after administration” value is listed as 0% and the “Fatality rate (%) 2 d after administration” value is given as 30%. The “Fatality rate (%) 3 d after administration” value in the assay on Plutella xylostella (Table 75, fast-acting efficacy, dose 0.5 mg/L, 3 d after administration) is 50%. For the same compound, the “Fatality rate (%, 3 d after administration) 1.25 mg/L” value with Chilo suppressalis (Table 77, 1.25 mg/L, 3 d after administration) was 8.6%. The “Fatality rate (%, 3 d after administration) 2.5 mg/L” value with Chilo suppressalis (Table 77, 2.5 mg/L, 3 d after administration) amounted to 22.2%. In addition, the “Fatality rate (%, 3 d after administration) 5 mg/L” value in the assay with Chilo suppressalis (Table 77, 5 mg/L, 3 d after administration) worked out at 50.3%.
On to `CN(C(=O)c1ccccc1)c1cccc(C(=O)Nc2c(Br)cc(C(F)(C(F)(F)F)C(F)(F)F)cc2C(F)(F)F)c1F` [CK16, broflanilide, reference compound], for which the pest or weed control at 0.5 µg/mL in the assay on Plutella xylostella (Table 74, 0.5 mg/L, 3 d after administration, read-out: Fatality rate (%, 3 d after administration) 0.5 mg/L) was 100%. The “Fatality rate (%, 3 d after administration) 0.05 mg/L” value in the assay on Plutella xylostella (3 d after administration) was 80.8%. In the assay with Plutella xylostella (setting [9]), the “Fatality rate (%) 1 d after administration” value was found to be 0% and the “Fatality rate (%) 2 d after administration” value was 52.5%. Moreover, the “Fatality rate (%) 3 d after administration” value in the assay with Plutella xylostella (Table 76, fast-acting efficacy, dose 0.05 mg/L, 3 d after administration) is given as 80.8%. For the same compound, the “Fatality rate (%, 3 d after administration) 0.625 mg/L” value with Chilo suppressalis (Table 78, 0.625 mg/L, 3 d after administration) is recorded as 10%. In addition, the “Fatality rate (%, 3 d after administration) 1.25 mg/L” value with Chilo suppressalis (Table 78, 1.25 mg/L, 3 d after administration) stood at 60.3%. Further, in the assay with Chilo suppressalis (Table 78, 2.5 mg/L, 3 d after administration), the “Fatality rate (%, 3 d after administration) 2.5 mg/L” value is recorded as 85.5%.
With `N#CCN(C(=O)c1ccc(F)cc1)c1cccc(C(=O)Nc2c(Br)cc(C(F)(C(F)(F)F)C(F)(F)F)cc2Br)c1F` [Compound 2.7], the pest or weed control at 0.5 µg/mL with Plutella xylostella (0.5 mg/L, 3 d after administration, read-out: fatality rate against Plutella xylostella) was ≥ 90%; in the assay with Plutella xylostella (setting [6]), 100%; with armyworm (0.5 mg/L), ≥ 90%. Also, the pest or weed control at 1 µg/mL is ≥ 90% in the assay on Plutella xylostella (1 mg/L, 3 d after administration, read-out: fatality rate against Plutella xylostella); 100% in the assay with Plutella xylostella (setting [7]); ≥ 90% with Chilo suppressalis (Chilo suppressalis, 72 h, 1 mg/L, survivals surveyed 3 d after administration, read-out: fatality rate against Chilo suppressalis). Further, the pest or weed control at 10 µg/mL in the assay on Plutella xylostella (setting [1]) worked out at 100%. Besides, in the assay on armyworm (0.05 mg/L), the pest or weed control at 0.05 µg/mL was ≥ 90%. The pest or weed control at 0.1 µg/mL in the assay with armyworm (0.1 mg/L) was ≥ 90%. The pest or weed control at 4 µg/mL with Chilo suppressalis (Chilo suppressalis, 72 h, 4 mg/L, survivals surveyed 3 d after administration, read-out: fatality rate against Chilo suppressalis) is ≥ 90%. Besides, the pest or weed control at 40 µg/mL in the assay on Chilo suppressalis (Chilo suppressalis, 72 h, 40 mg/L, survivals surveyed 3 d after administration, read-out: fatality rate against Chilo suppressalis) was ≥ 90%.
